# Data: US20050004126A1 (priority 2001, published 2005)
# Like-named read-outs stand apart in the source and are kept apart here.
# What was measured:
# [1] = target: T1, MMP-13CD (catalytic domain of collagenase 3) (Homo sapiens, UniProt P45452); assay: biochemical;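 further: inhibition of enzymatic thiopeptolide substrate cleavage (100 µM) in pH 6.0 MES buffer with CaCl2 and DTNB, comparing hydrolysis with versus without inhibitor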
# [2] = target: T1, MMP-13CD (catalytic domain of collagenase 3); assay: Thiopeptolide hydrolysis assay, MMP-13;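 further: inhibition of enzymatic thiopeptolide substrate cleavage (100 µM) in pH 6.0 MES buffer with CaCl2 and DTNB, comparing hydrolysis with versus without inhibitor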
# [3] = target: T2, MMP-2FL (full length Gelatinase A) (Homo sapiens, UniProt P08253); assay: Thiopeptolide hydrolysis assay, MMP-2; type: biochemical
# T2 sequence (P08253 110-660): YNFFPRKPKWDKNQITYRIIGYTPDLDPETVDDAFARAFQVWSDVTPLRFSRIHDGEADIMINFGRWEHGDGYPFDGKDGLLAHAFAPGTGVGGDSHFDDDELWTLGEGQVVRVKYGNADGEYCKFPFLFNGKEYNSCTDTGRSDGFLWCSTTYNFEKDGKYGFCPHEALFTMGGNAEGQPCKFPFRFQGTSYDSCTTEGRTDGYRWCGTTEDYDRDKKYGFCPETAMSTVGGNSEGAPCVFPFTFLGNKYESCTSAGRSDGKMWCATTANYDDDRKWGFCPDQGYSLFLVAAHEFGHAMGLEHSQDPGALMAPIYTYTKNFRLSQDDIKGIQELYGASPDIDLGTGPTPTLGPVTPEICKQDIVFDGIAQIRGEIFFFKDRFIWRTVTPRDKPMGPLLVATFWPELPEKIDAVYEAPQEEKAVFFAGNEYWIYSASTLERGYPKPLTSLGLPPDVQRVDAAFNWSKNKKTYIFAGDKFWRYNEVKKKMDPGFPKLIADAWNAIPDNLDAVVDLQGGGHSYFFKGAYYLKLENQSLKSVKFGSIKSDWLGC
# [4] = target: MMP-3CD (catalytic domain of stromelysin) (Homo sapiens, UniProt P08254); assay: Thiopeptolide hydrolysis assay, MMP-3; type: biochemical;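 further: inhibition of thiopeptolide substrate (100 µM) cleavage by the MMP-3 catalytic domain, detected with DTNB at pH 6.0 with CaCl2, hydrolysis compared against runs lacking inhibitor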
# Protocol: (§1) They measure the amount by which a test compound reduces the hydrolysis of a thiopeptolide substrate caused by a matrix metalloproteinase enzyme.
# Thiopeptolide substrates show virtually no decomposition or hydrolysis in the absence of a matrix metalloproteinase enzyme. A typical thiopeptolide substrate commonly utilized for assays is Ac-Pro-Leu-Gly-thioester-Leu-Leu-Gly-OEt. A 100 μL assay mixture will contain 50 mM of 2-morpholinoethane sulfonic acid monohydrate (MES, pH 6.0) 10 mM CaCl2, 100 μM thiopeptolide substrate, and 1 mM 5,5′-dithio-bis-(2-nitro-benzoic acid) (DTNB). […] Assays are carried out with and without matrix metalloproteinase inhibitor compounds, and the amount of hydrolysis is compared for a determination of inhibitory activity of the test compounds.
# [5] = target: T3, MMP-7FL (full-length matrilysin) (Homo sapiens, UniProt P09237); assay: Thiopeptolide hydrolysis assay, MMP-7; type: biochemical
# T3 sequence (P09237 95-267): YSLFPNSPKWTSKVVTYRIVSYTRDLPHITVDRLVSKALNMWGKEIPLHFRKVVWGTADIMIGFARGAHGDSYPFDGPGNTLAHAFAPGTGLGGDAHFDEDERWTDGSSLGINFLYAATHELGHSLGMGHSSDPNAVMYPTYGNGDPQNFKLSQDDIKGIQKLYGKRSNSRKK
# [6] = target: MMP-9FL (full length Gelatinase B) (Homo sapiens, UniProt P14780); assay: Thiopeptolide hydrolysis assay, MMP-9; type: biochemical
# [7] = target: MMP-14CD (catalytic domain of membrane type 1 MMP) (Homo sapiens, UniProt P50281); assay: Thiopeptolide hydrolysis assay, MMP-14; type: biochemical
# [8] = target: T4, MMP-1FL (full-length interstitial collagenase) (Homo sapiens, UniProt P03956); assay: Thiopeptolide hydrolysis assay, MMP-1; type: biochemical
# T4 sequence (P03956 100-469): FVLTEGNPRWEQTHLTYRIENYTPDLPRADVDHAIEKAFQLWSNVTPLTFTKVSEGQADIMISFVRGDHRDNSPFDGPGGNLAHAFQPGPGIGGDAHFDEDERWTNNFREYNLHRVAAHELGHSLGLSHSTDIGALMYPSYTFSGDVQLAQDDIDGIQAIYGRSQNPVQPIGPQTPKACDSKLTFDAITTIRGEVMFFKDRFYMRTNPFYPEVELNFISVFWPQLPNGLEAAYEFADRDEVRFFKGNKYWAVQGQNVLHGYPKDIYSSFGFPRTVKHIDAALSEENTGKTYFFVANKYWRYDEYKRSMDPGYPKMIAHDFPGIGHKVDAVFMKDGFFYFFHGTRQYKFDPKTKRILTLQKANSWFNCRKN
# Protocol: as §1
# Thiopeptolide substrates show virtually no decomposition or hydrolysis in the absence of a matrix metalloproteinase enzyme. A typical thiopeptolide substrate commonly utilized for assays is Ac-Pro-Leu-Gly-thioester-Leu-Leu-Gly-OEt. A 100 μL assay mixture will contain 50 mM of 2-morpholinoethane sulfonic acid monohydrate (MES, pH 6.0) 10 mM CaCl2, 100 μM thiopeptolide substrate, and 1 mM 5,5′-dithio-bis-(2-nitro-benzoic acid) (DTNB). […] The change in absorbance at 405 nm is monitored on a Thermo Max microplate reader (moleucular Devices, Menlo Park, Calif.) at room temperature (22° C.). […] Assays are carried out with and without matrix metalloproteinase inhibitor compounds, and the amount of hydrolysis is compared for a determination of inhibitory activity of the test compounds.
# [9] = Table 1a, full-length enzyme, read-out: MMP02 (FL) IC50
# [10] = Table 1a, full-length enzyme, read-out: MMP07 (FL) IC50
# [11] = Table 1a, full-length enzyme, read-out: MMP09 (FL) IC50
# [12] = Table 1a, catalytic domain, read-out: MMP14 (CD) IC50
# [13] = Table 1a, full-length enzyme, read-out: MMLP01 (FL) IC50
# [14] = Table 1a, catalytic domain, read-out: MMP03 (CD) IC50
# [15] = MMP13 (CD) IC50 μM, Table 1a, catalytic domain
# [16] = Table VI, synthesis examples, read-out: MMP01
# [17] = Table VI, synthesis examples, read-out: MMP02
# [18] = Table VI, synthesis examples, read-out: MMP09
# [19] = Table VI, synthesis examples, read-out: MMP014
# [20] = Table VI, synthesis examples, read-out: MMP07
# MMP-9FL (full length Gelatinase B), sequence (P14780 94-707): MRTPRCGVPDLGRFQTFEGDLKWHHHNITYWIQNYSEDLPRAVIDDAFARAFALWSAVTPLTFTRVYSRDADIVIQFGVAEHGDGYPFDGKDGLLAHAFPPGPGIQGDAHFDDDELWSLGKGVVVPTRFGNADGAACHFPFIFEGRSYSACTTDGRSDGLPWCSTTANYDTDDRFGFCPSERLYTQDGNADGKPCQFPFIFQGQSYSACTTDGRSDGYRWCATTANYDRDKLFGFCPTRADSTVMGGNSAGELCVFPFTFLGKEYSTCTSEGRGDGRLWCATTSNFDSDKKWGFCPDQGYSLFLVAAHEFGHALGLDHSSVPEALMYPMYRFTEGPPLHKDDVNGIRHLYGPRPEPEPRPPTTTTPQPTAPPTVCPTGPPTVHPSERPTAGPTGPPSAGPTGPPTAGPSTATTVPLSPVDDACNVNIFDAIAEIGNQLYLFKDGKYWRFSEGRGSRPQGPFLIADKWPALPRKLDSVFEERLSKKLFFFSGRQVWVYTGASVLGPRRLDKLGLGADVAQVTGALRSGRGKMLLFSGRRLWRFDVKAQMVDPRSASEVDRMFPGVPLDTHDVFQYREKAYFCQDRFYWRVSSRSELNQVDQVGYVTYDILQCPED
# MMP-3CD (catalytic domain of stromelysin), sequence (P08254 100-272 limits assumed): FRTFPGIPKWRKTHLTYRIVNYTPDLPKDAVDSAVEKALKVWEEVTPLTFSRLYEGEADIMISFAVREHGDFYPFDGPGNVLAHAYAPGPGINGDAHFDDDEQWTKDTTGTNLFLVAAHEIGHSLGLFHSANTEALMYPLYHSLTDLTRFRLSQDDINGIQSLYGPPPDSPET
structure (smiles),measurement,setting,value
"O=C(NCc1ccc2c(c1)OCO2)c1ccc2[nH]c(=S)n(Cc3ccccc3)c(=O)c2c1 [3-Benzyl-4-oxo-2-thioxo-1,2,3,4-tetrahydroquinazoline-6-carboxylic acid (benzo[1,3]dioxol-5-ylmethyl)amide]",IC50,[1],0.014 µM
same,IC50,"[2]; MMP13 IC50 μM, Table IVb",0.014 µM
O=C(OCc1ccccc1)c1cn2c(=O)n(Cc3ccccc3)c(=O)cc2s1 [Example 1],IC50,[3]; [9],> 100 µM
same,IC50,[4]; read-out: MMP03 (CD) IC50,> 100 µM
same,IC50,[5]; [10],> 100 µM
same,IC50,[6]; [11],> 100 µM
same,IC50,[7]; [12],> 100 µM
O=C(NCc1ccccc1)c1cn2c(=O)n(Cc3ccccc3)c(=O)cc2s1 [Example 2],IC50,[8]; [13],> 100 µM
same,IC50,[3]; [9],81 µM
same,IC50,[4]; [14],> 100 µM
same,IC50,[5]; [10],> 100 µM
same,IC50,[6]; [11],> 100 µM
same,IC50,[7]; [12],> 100 µM
same,IC50,[2]; [15],0.51 µM
Cc1c(=O)n(Cc2ccccc2)c(=O)n2cc(C(=O)OCc3ccccc3)sc12 [Example 3],IC50,[3]; [9],> 100 µM
same,IC50,[4]; [14],> 30 µM
same,IC50,[5]; [10],> 100 µM
same,IC50,[6]; [11],> 100 µM
same,IC50,[7],> 100 µM
same,IC50,[2]; [15],0.0056 µM
O=C(OCc1ccncc1)c1cn2c(=O)n(Cc3ccccc3)c(=O)cc2s1 [Example 4],IC50,[4]; [14],≥ 30 µM
same,IC50,[5]; [10],≥ 100 µM
same,IC50,[6]; [11],≥ 100 µM
same,IC50,[7]; [12],≥ 100 µM
same,IC50,[2]; [15],0.0054 µM
COc1ccc(CNC(=O)c2cn3c(=O)n(Cc4ccc(C(=O)O)cc4)c(=O)c(C)c3s2)cc1 [Example 5],IC50,[8]; [13],> 100 µM
same,IC50,[3]; [9],> 100 µM
same,IC50,[4]; [14],29 µM
same,IC50,[5]; [10],> 100 µM
same,IC50,[6]; [11],> 100 µM
same,IC50,[7]; [12],> 100 µM
same,IC50,[2]; [15],0.0015 µM
Cc1c(=O)n(Cc2ccc(C(=O)O)cc2)c(=O)n2cc(C(=O)NCc3ccncc3)sc12 [Example 6],IC50,[3]; [9],> 100 µM
same,IC50,[4]; [14],> 100 µM
same,IC50,[5]; [10],> 100 µM
same,IC50,[6]; [11],> 100 µM
same,IC50,[7]; [12],> 100 µM
same,IC50,[2]; [15],0.0057 µM
Cc1c(=O)n(Cc2ccc(S(C)(=O)=O)cc2)c(=O)n2cc(C(=O)NCc3ccncc3)sc12 [Example 7],IC50,[3]; [9],> 100 µM
same,IC50,[4]; [14],> 100 µM
same,IC50,[5]; [10],> 100 µM
same,IC50,[6]; [11],> 100 µM
same,IC50,[7]; [12],> 100 µM
same,IC50,[2]; [15],0.0235 µM
COc1ccc(CNC(=O)c2cn3c(=O)n(Cc4ccc(Cl)c(Cl)c4)c(=O)cc3s2)cc1 [Example 8],IC50,[8]; [13],> 100 µM
same,IC50,[3]; [9],> 100 µM
same,IC50,[4]; [14],> 100 µM
same,IC50,[5]; [10],> 100 µM
same,IC50,[6]; [11],> 100 µM
same,IC50,[7]; [12],> 100 µM
same,IC50,[2]; [15],0.084 µM
"COc1ccc(CNC(=O)c2cn3c(=O)n(Cc4ccc(C(=O)O)cc4)c(=O)c(C)c3s2)cc1 [Synthesis Example 5, 4-[2-(4-Methoxy-benzylcarbamoyl)-8-methyl-5,7-dioxo-7H-thiazolo[3,2-c]pyrimidin-6-ylmethyl]-benzoic acid]",melting point,,> 210 °C
"O=C(OCc1ccncc1)c1cc2c(=O)n(Cc3ccccc3)c(=O)[nH]c2s1 [Synthesis Example 18, 3-Benzyl-2,4-dioxo-1,2,3,4-tetrahydro-thieno[2,3-d]pyrimidine-6-carboxylic acid pyridin-4-ylmethyl ester]",melting point,,248 to 250 °C
"O=C(OCc1ccc2c(c1)OCO2)c1ccc2[nH]c(=O)n(Cc3ccccc3)c(=O)c2c1 [Synthesis Example 45, Benzo[1,3]dioxol-5-ylmethyl 3-benzyl-2,4-dioxo-1,2,3,4-tetrahydroquinazoline-6-carboxylate]",IC50,[1],0.007 µM
"Cn1c(=O)n(Cc2ccccc2)c(=O)c2cc(C(=O)OCc3ccc4c(c3)OCO4)ccc21 [Synthesis Example 46, Benzo[1,3]dioxol-5-ylmethyl 3-benzyl-1-methyl-2,4-dioxo-1,2,3,4-tetrahydroquinazoline-6-carboxylate]",IC50,[1],0.0025 µM
"O=C(OCc1ccncc1)c1ccc2[nH]c(=O)n(Cc3cccs3)c(=O)c2c1 [Synthesis Example 47, 4-Pyridylmethyl 2,4-dioxo-3-thien-2-ylmethyl-1,2,3,4-tetrahydroquinazoline-6-carboxylate]",IC50,[1],0.016 µM
"Cn1c(=O)n(Cc2ccccc2)c(=O)c2cc(C(=O)NCc3ccc4c(c3)OCO4)cnc21 [Synthesis Example 49, 3-Benzyl-1-methyl-2,4-dioxo-1,2,3,4-tetrahydro-pyrido[2,3-d]pyrimidine-6-carboxylic acid (1,3-benzodioxol-5-ylmethyl)-amide]",IC50,[1],0.007 µM
"COc1ccc(CNC(=O)c2cnc3c(c2)c(=O)n(Cc2ccc(C(=O)O)cc2)c(=O)n3C)cc1 [Synthesis Example 50, 4-[6-(4-Methoxy-benzylcarbamoyl)-1-methyl-2,4-dioxo-1,4-dihydro-2H-pyrido[2,3-d]pyrimidin-3-ylmethyl]-benzoic acid]",IC50,[1],0.0016 µM
"COc1ccc(CNC(=O)c2cnc3c(c2)c(=O)n(Cc2ccc(C#N)cc2)c(=O)n3C)cc1 [Synthesis Example 51, 3-(4-Cyano-benzyl)-1-methyl-2,4-dioxo-1,2,3,4-tetrahydro-pyrido[2,3-d]pyrimidine-6-carboxylic acid 4-methoxy-benzylamide]",IC50,[1],0.016 µM
"COc1ccc(CNC(=O)c2cnc3c(c2)c(=O)n(Cc2ccc(F)cc2)c(=O)n3C)cc1 [Synthesis Example 52, 3-(4-Fluoro-benzyl)-1-methyl-2,4-dioxo-1,2,3,4-tetrahydro-pyrido[2,3-d]pyrimidine-6-carboxylic acid 4-methoxy-benzylamide]",IC50,[1],0.032 µM
"Cn1c(=O)n(Cc2ccccc2)c(=O)c2cc(C(=O)NCc3ccc4c(c3)OCO4)ncc21 [Synthesis Example 53, 3-Benzyl-1-methyl-2,4-dioxo-1,2,3,4-tetrahydro-pyrido[3,4-d]pyrimidine-6-carboxylic acid (1,3-benzodioxol-5-ylmethyl)-amide]",IC50,[1],0.001 µM
"COC(=O)c1ccc(Cn2c(=O)c3cc(C(=O)NCc4ccc(OC)cc4)ncc3n(C)c2=O)cc1 [Synthesis Example 54, Methyl 4-[6-(4-Methoxy-benzylcarbamoyl)-1-methyl-2,4-dioxo-1,4-dihydro-2H-pyrido[3,4-d]pyrimidin-3-ylmethyl]-benzoate]",IC50,[1],0.0017 µM
"COC(=O)c1ccc(Cn2c(=O)c3cc(C(=O)NCc4ccc(OC)cc4)ccc3n3cnnc23)cc1 [Synthesis Example 59, Methyl 4-{7-[(4-methoxybenzyl)-carbamoyl]-5-oxo-5H-[1,2,4]triazolo[4,3-a]quinazol-4-ylmethyl}benzoate]",melting point,,210 °C
same,IC50,"[2]; IC50 μM, Table V, MMP-13",0.0026 µM
CN1C(=O)N(Cc2ccccc2)S(=O)(=O)c2cc(C(=O)OCc3ccccc3)ccc21 [compound 62],IC50,[8]; [16],> 100 µM
same,IC50,[3]; [17],> 100 µM
same,IC50,[6]; [18],> 100 µM
same,IC50,[7]; [19],> 100 µM
CN1C(=O)N(Cc2ccccc2)S(=O)(=O)c2cc(C(=O)NCc3ccccc3)ccc21 [compound 63],IC50,[8]; [16],> 100 µM
same,IC50,[3]; [17],> 30 µM
same,IC50,"[4]; Table VI, synthesis examples, read-out: MMP03",> 30 µM
same,IC50,[5]; [20],> 30 µM
same,IC50,[6]; [18],> 30 µM
same,IC50,[7]; [19],> 30 µM
COc1ccc(CNC(=O)c2ccc3c(c2)S(=O)(=O)N(Cc2ccc([N+](=O)[O-])cc2)C(=O)N3C)cc1 [compound 65],IC50,[8]; [16],> 30 µM
same,IC50,[5]; [20],> 30 µM
same,IC50,[6]; [18],> 30 µM
same,IC50,[7]; [19],> 30 µM
